Measurements: patent US20190201419A1, “COMPOUND AND METHOD FOR THE TREATMENT AND DIAGNOSIS OF NEURODEGENERATIVE CONDITIONS” (Swansea University, priority 2013, published 2019)

Experiments:
zebrafish embryos = test: Survival of transgenic zebrafish embryos on compound exposure; type: in vivo
Method: (§1) Zebrafish Strain and Maintenance Zebrafish were raised on a 14/10 h day/night cycle and were kept at 28.5 ° C. Islet-1:GFP transgenic embryos were obtained via natural spawning and staged in hours or days post fertilization (hpf and dpt) according to Kimmel et al). Embryos older than 24 hpf were treated with 0.03% phenylthiourea (PTU) to inhibit pigmentation. MO injections were performed using splice site specific zebrafish lxi MO MO injected embryos were immediately dechorionated and transferred to a 96 well plate and exposed to dimethyl sulfoxide (DMSO) treated or ligand treated medium. Compound Exposure. Islet-1:GFP embryos were collected by natural mating and immediately (at 1 cell stage) dechorionated and transferred to a 96 well plate. Each of the compounds tested were obtained as 10 mM stock and diluted in embryo medium to a final concentration of 10 μM, and 200 μL was added to each well. DMSO or propan-2-ol treated embryo medium was taken as control. Ligand solutions were replaced every 12 h with fresh ligand solution prepared in PTU treated embryo medium. Embryos were collected at 48 hpf, fixed for 4 h at room temperature with 4% paraformaldehyde and then washed and kept in PBST. Immunocytochemistry was performed using an anti-GFP antibody and fluorescence was viewed and photographed using a Zeiss Axioplan compound microscope and a Zeiss Axiocam digital camera.

Lxrβ = biological target: T1, Lxrβ (Homo sapiens, UniProt P55055); test: Lxrβ luciferase reporter assay in SN4741 neural cells; type: cell-based, mouse; settings: for Lxrβ activation, luciferase activity (fold activation): SN4741 cells, 10 μM, 24 h
T1 construct: expressed in transfected cells; host or cells: SN4741 mouse neuronal cell line
T1 sequence (P55055 1-460): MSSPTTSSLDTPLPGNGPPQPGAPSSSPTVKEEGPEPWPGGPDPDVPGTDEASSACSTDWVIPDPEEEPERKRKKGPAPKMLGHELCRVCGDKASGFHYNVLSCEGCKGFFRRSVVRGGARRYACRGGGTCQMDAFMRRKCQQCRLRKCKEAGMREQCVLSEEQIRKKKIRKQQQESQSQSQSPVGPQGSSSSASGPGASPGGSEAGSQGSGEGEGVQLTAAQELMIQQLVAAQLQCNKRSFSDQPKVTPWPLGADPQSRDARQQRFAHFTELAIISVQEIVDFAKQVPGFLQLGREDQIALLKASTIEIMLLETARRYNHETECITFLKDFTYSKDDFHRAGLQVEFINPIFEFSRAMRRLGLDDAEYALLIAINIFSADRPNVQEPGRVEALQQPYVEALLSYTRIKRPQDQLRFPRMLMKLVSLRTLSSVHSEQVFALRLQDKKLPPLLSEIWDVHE
Text: (§2) Luciferase Reporter Assay.

Lxrα = biological target: T2, Lxrα (Homo sapiens, UniProt Q13133); test: Lxrα luciferase reporter assay in SN4741 neural cells; type: cell-based, mouse; settings: for Lxrα activation, luciferase activity (fold activation): 10 μM, 24 h
T2 construct: expressed in transfected cells; host or cells: SN4741 mouse neuronal cell line
T2 sequence (Q13133 1-447): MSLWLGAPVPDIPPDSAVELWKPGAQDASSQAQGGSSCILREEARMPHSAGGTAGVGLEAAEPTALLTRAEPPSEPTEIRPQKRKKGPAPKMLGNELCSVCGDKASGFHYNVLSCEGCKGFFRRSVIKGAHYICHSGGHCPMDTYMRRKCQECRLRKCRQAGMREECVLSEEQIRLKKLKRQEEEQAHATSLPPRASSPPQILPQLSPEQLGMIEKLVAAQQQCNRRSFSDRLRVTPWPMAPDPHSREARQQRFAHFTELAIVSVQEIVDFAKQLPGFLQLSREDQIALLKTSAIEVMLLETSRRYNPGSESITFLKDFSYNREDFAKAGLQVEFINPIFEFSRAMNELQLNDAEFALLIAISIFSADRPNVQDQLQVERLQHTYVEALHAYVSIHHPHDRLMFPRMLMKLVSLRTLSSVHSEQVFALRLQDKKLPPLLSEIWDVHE
Text: as §2

[1] = tested on: Islet1+ oculomotor neurons; test: Islet1+ cells in mouse E11.5 brain primary cultures; type: cell-based; settings: for Number of Islet1+ cells / Concentration giving significant difference from vehicle in Islet1+ cells: wild type cultures; for Concentration giving significant difference from vehicle in Islet1+ cells: p<0.05; for Effect on Islet1+ cells in Lxrα−/−β−/− cultures: cultures from Lxrα−/−β−/− mice; for Effect on Islet1+ cells with Lxr antagonist GGPP: wt cultures, 10 μM GGPP
Method: (§3) Primary Brain Cultures. Brains from E11.5 mice were manually dissected, plated on poly-D-lysine (150,000 cells/cm^2) and grown in serum-free N2 media consisting of 1:1 mixture of F12 and DMEM with 10 ng/mL insulin, 100 μg/mL apo-transferrin, 100 μM putrescine, 20 nM progesterone, 30 nM selenium, 6 mg/mL glucose, and 1 mg/mL BSA. Cells were treated for 3 days in vitro (DIV) with the compounds of interest, fixed with 4% PFA and processed for staining using appropriate antibodies.
(§4) Antibodies and Detection Procedures. Cells were fixed in 4% PFA, washed in PBS and blocked in 5% normal goat serum/PBS for 1 h at room temperature. Primary antibodies were diluted in PBS (pH 7.4), 0.3% Triton X-100, 1% BSA and incubations were carried out overnight at +4° C. or at room temperature for 2 h. The antibodies used were anti-:BrdU (1:400; Abeam), Islet-1 (1:100: Developmental Studies Hybridoma Bank), cleaved caspase-3 (Aspt 75) (1:100; Cell Signaling Technology), tyrosine hydroxylase (TH; 1:1000; Pel-Freeze) GABA (1:1,000; Sigma), Bm3a (1:250; Millipore), Nkx6.1 (1:200; Novus Biologicals), choline acetyltransferase (ChAT; 1:500; Millipore) and appropriate secondary antibodies (Jackson ImmunoResearch or Alexa). Cells positive for the corresponding marker were counted directly at the microscope at a magnification of 20×. Cells were counted in every well, in eight consecutive fields (going from one side of the well to the other, passing through the center), in three different wells per experiment and in three different experiments per condition. Random pictures of the wells were taken for every condition to document the result, and representative pictures were subsequently selected to represent the quantitative data. Photos were acquired with a Zeiss Axioplan microscope and a Hamamatsu camera C4742-95 using the Openlab software.

Lxrβ-LBD = biological target: T3, Lxrβ-LBD (Homo sapiens, UniProt P55055); test: Lanthascreen TR-FRET Lxrβ coactivator assay; type: binding
T3 construct: the Lxrβ-LBD tagged with glutathione-S-transferase (GST); purchased Invitrogen
T3 sequence (P55055 222-460 limits assumed): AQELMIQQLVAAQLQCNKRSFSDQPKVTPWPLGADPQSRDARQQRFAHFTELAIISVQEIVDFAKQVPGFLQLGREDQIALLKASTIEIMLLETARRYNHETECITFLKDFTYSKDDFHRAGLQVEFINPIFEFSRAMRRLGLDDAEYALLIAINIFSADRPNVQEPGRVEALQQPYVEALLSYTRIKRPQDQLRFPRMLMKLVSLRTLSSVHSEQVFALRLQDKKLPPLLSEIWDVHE
Text: Lxrβ Ligand Binding Assay. For Lxrβ ligand binding activity measurement, the applicants used the Lanthascreen™ TR-FRET Lxrβ Coactivator Assay (Invitrogen). The assay uses a terbium (Tb)-labeled anti-GST antibody, a fluorescein-labeled coactivator peptide and the Lxrβ-LBD tagged with glutathione-S-transferase (GST). Binding of the agonist/ligand to Lxrβ-LBD causes a conformational change that result in an increase in the affinity of the Lxrβ for the coactivator peptide. The close proximity of the fluorescently labeled coactivator peptide to the Tb-labeled antibody causes an increase in the TR-FRET signal intensity. The TR-FRET ratio of 520/495 was calculated using a Victor multi label reader with an excitation wavelength of 340 nm and emission wavelengths of 520 nm and 495 nm, The activational capacity of potential ligands was tested in a […] polypropylene plate, following the manufacturer's protocol.

active caspase 3+ cells = test: Active caspase 3+ cells in mouse E11.5 brain primary cultures; type: cell-based; settings: for Number of active caspase-3+ cells: wt cultures, 3β,7α-diHCA, 3βH,7O-CA, 25-HC at 10 μM, toxic acids at low concentrations
Method: as §3, §4

[2] = tested on: Abca1, Abcg1 and Srebf1 transcript levels; test: Quantitative PCR of Lxr target genes in SN4741 cells; type: cell-based, mouse; settings: 3 h
Method: (§5) Quantitative PCR, Total RNA was extracted from SN4741. cells and zebrafish treated with the compounds of interest using the RNeasy Mini Kit (Qiagen), 1 μg was treated with RQ1 RNase-free DNase (Promega) and reverse transcribed using SuperScript II Reverse Transcriptase (invitrogen) and random primers (invitrogen) (RT+reaction). Parallel reactions without reverse transcriptase enzyme were done as a control (RT−reaction), and Sybergreen real-time quantitative PCR assays were performed. Expression levels were obtained by normalization with the Value of the housekeeping gene encoding actin obtained for every sample in parallel assays.

[3] = LC-ESI-MSn of cholestenoic acids in mouse brain; settings: 23 month old male Cyp7b1−/− mice
Text: Animals. Lxra,−/−β−/− mouse cell cultures were from the colony at the Department of Biosciences and Nutrition at Novum, Karolinska Institutet. Male and female wild-type and Lxrα−/−β−/− mice were generated as previously described (Alberti et al. J. Clin. Invest 2001:107(5), 565-73). Mice were back crossed onto a C57BL/6 background for 10 generations. Male Cyp7b1−/− mouse brain and plasma were from animals generated at the University of Edinburgh. Male mice homozygous for targeted disruption of the Cyp7b1 gene congenic on the C57BL/6 genetic background (>15 generations backcrossed to C57BL/6) and wild-type littermate controls were generated from Cyp7b1−/+ crosses. Male cyp27a1−/− mouse tissue and plasma was purchased from The Jackson Laboratory (ME, USA) strain B6.129-Cyp27a1^tm1Elt/J. The Cyp27a1−/− colony was backcrossed to C57BL/6J inbred mice for approximately 12 generations by the donating investigator prior to sending to The Jackson Laboratory Repository. Upon arrival, mice were bred to C57BL/6J inbred mice for at least one generation to establish the colony. Wild type animals from the colony were used as controls.
Extraction of Sterols. […]
Charge Tagging of Sterols. The sterols were charge-tagged with the GP-hydrazine to enhance their response when analysed by LC-ESI-MS and tandem mass spectrometry (MS^n).

Islet-1 = Islet-1 expression in Tg[Isl1:GFP] zebrafish embryos; type: in vivo; settings: 10 μM
Method: as §5, §1

[4] = tested on: TH+ dopamine neurons, GABAergic or red nucleus neurons; Nkx6.1+ cells; test: Other cell types in mouse E11.5 brain primary cultures; type: cell-based; settings: data not shown
Method: as §3, §4

abca1 = abca1 expression in zebrafish embryos; type: in vivo; settings: 10 μM
Method: as §5
Zebrafish Strain and Maintenance Zebrafish were raised on a 14/10 h day/night cycle and were kept at 28.5 ° C. Islet-1:GFP transgenic embryos were obtained via natural spawning and staged in hours or days post fertilization (hpf and dpt) according to Kimmel et al). Embryos older than 24 hpf were treated with 0.03% phenylthiourea (PTU) to inhibit pigmentation. […] Immunocytochemistry was performed using an anti-GFP antibody and fluorescence was viewed and photographed using a Zeiss Axioplan compound microscope and a Zeiss Axiocam digital camera.

| SMILES | Lxrβ activation, luciferase activity (fold activation) (Lxrβ) | Lxrα activation, luciferase activity (fold activation) (Lxrα) | Number of Islet1+ cells [1] | Concentration giving significant difference from vehicle in Islet1+ cells [1] | Number of active caspase-3+ cells (active caspase 3+ cells) | Islet-GFP expression (Islet-1; embryos 48 hpf) | Effect on Islet1+ cells in Lxrα−/−β−/− cultures [1] | Effect on Islet1+ cells with Lxr antagonist GGPP [1] | also measured |
| --- | --- | --- | --- | --- | --- | --- | --- | --- | --- |
| CC(CCC[C@@H](C)[C@H]1CC[C@H]2[C@@H]3[C@@H](O)C=C4C[C@@H](O)CC[C@]4(C)[C@H]3CC[C@]12C)C(=O)O (stereo partly drawn) [3β,7β-diHCA, 3β,7β-dihydroxycholest-5-en-26-oic acid] | have the ability to activate both Lxrs | have the ability to activate both Lxrs | caused the loss of Islet1+ cells in the cultures | ≥ 2 µM | increased the number of active caspase-3+ cells |  |  |  | Toxic effect on survival of the fish (zebrafish embryos): had a deleterious toxic effect which impaired the survival of the fish; Lxr activational capacity in combination with 22R-HC (Lxrβ; 10 μM acid + 10 μM 22R-HC): No additive effect was observed; Competition with the effect of 3β,7α-diHCA in TR-FRET (Lxrβ-LBD; 3β,7α-diHCA at 10 μM plus increasing concentrations of competitor): the effect of 3β,7α-diHCA was reduced to that of the latter acids; Competitor concentration giving significant difference from 10 μM 3β,7α-diHCA alone in TR-FRET (Lxrβ-LBD; p<0.05 vs 10 μM 3β,7α-diHCA): ≥ 2; Surviving cells in cultures (active caspase 3+ cells; 10 μM): no surviving cells were detected; Concentration at which toxicity is initiated (active caspase 3+ cells; mouse, primary brain cultures from E11.5 mouse embryos, 3 days): 1000 nM; Concentration giving significant difference from vehicle in active caspase 3+ cells (active caspase 3+ cells; p<0.05): ≥ 2 µM; Abca1, Abcg1 and Srebf1 transcript levels [2]: induced transcription, but to a lesser extent |
| C[C@H](CCCC(C)(C)O)[C@H]1CC[C@H]2[C@@H]3CC=C4C[C@@H](O)CC[C@]4(C)[C@H]3CC[C@]12C [25-HC, cholest-5-ene-3β,25-diol] | activate Lxr | activate Lxr | increase the number of Islet1+ oculomotor cells |  | reduced the number of active caspase-3+ cells | induced a modest increase in the levels of islet-1 | blocked in cultures from Lxrα−/−β−/− animals | inhibited by the Lxr antagonist GGPP | Level in Cyp7b1−/− mouse brain [3]: > 2 ng/mg; Lxr luciferase activity with addition of the Lxr antagonist GGPP (Lxrα; 10 μM metabolite + 10 μM GGPP): similarly blocked |
| CC(CCC[C@@H](C)[C@H]1CC[C@H]2[C@@H]3C(=O)C=C4C[C@@H](O)CC[C@]4(C)[C@H]3CC[C@]12C)C(=O)O (stereo partly drawn) [3βH,7O-CA, 3β-hydroxy-7-oxocholest-5-en-26-oic acid] | have the ability to activate both Lxrs | have the ability to activate both Lxrs | increased the number of Islet1+ oculomotor cells in the cultures | ≥ 10 µM | did not affect the number of active caspase-3+ cells | increased Islet-GFP expression | eliminated | blocked by the Lxr antagonist GGPP | Islet-1 mRNA and protein level (qPCR, western blot) (Islet-1): accompanied by an increase in the level of Islet-1 mRNA and protein; Number of Islet1+ cells in cranial nerves (III, IV, V, VII, X) (Islet-1; embryos 48 hpf): had no significant effect on the number of Islet1+cells; Islet-GFP levels after lxr morpholino injection (Islet-1; lxr MO vs control scrambled MO): lxr MO injections abolished the in vivo increase in Islet-GFP levels; Number of other midbrain neurons (TH+ dopamine, GABAergic, red nucleus) [4]: did not affect the number of other midbrain neurons; abca1 expression (abca1): enhanced expression of abca1 |
